Each structure is given as a SMILES string.

Data set [1] has as its target T1, histamine H3 receptor (Rattus norvegicus, UniProt Q9QYN8).
T1 construct: from tissue; host or cells: rat striatum (Sprague-Dawley, male, 6 weeks), membrane homogenate
The data set can be described thus: Inhibitory effect on histamine release suppressive action of histamine H3 receptor agonist (Nα-methylhistamine) in rat forebrain synaptosomes. The format is biochemical. The following applies: 1 μmol/L test compound and 1 μmol/L Nα-methylhistamine, potassium 30 mmol/L stimulation, read-out: Inhibition ratio of the [3H]-histamine release suppressive action of Nα-methylhistamine. The procedure: To the forebrains of Sprague-Dawley male rats (6 to 8 weeks of age), a 30-fold volume of a 0.32 mol/L aqueous sucrose solution was added and the forebrains were homogenized. The resulting homogenate was centrifuged (1,000×g, 4° C., 10 min), and to the obtained supernatant, an equivalent volume of Krebs-Ringer solution [120 mmol/L sodium chloride, 0.8 mmol/L potassium chloride, 2.6 mmol/L calcium chloride, 0.67 mmol/L magnesium sulfate, 1.2 mmol/L potassium dihydrogen phosphate, 27.5 mmol/L sodium bicarbonate, 10 mmol/L glucose (pH 7.3)] was added, and the resulting mixture was centrifuged (10,000×g, 4° C., 15 min). To the obtained precipitate, a 15-fold volume of Krebs-Ringer solution was added to suspend the precipitate. Then, the concentration of protein in the resulting tissue homogenate (synaptosomes) was measured and used for a test.
To the synaptosomes (300 μg in terms of protein amount) prepared by the above-described method, a [^3H]-histidine solution [final concentration: […] (740 kBq)/mL]: 6 μl of a 37 MBq/mL (specific activity: […]) solution] was added, and the total volume was adjusted to 300 μL with Krebs-Ringer solution. Then, the resulting mixture was incubated at 37° C. for 30 minutes and centrifuged (10,000×g, 25° C., 3 min). To the resulting precipitate (synaptosomes), 300 μL of Krebs-Ringer solution was added, and the mixture was incubated at 37° C. for 5 minutes and centrifuged (10,000×g, 25° C., 3 min). This procedure was repeated 5 times, whereby washing of synaptosomes was carried out. The resulting synaptosomes were suspended in 100 μL of Krebs-Ringer solution, and the resulting suspension was used for the following procedure.
A test compound and N^α-methylhistamine were separately dissolved in Krebs-Ringer solution to give a concentration of 20 μmol/L (the resulting mixtures were referred to as a test compound solution and a N^α-methylhistamine solution, respectively). To 100 μL of the above-described suspended synaptosomes (300 μg in terms of protein amount), 140 μL of Krebs-Ringer solution was added. Then, 30 μL of the test compound solution and 30 μL of the N^α-methylhistamine solution were added thereto, and the resulting mixture was incubated at 37° C. for 2 minutes. Then, an equivalent volume of a stimulating solution [64 mmol/L sodium chloride, 56.8 mmol/L potassium chloride, 2.6 mmol/L calcium chloride, 0.67 mmol/L magnesium sulfate, 1.2 mmol/L potassium dihydrogen phosphate, 27.5 mmol/L sodium bicarbonate, 10 mmol/L glucose (pH 7.3)] (final potassium concentration: 30 mmol/L) was added, and the resulting mixture was incubated at 37° C. for 2 minutes to release [^3H]-histamine. The reaction mixture was centrifuged (10,000×g, 25° C., 3 min), and the obtained supernatant was passed through Amberlite CG-50 column (250 μL), and the non-adsorbed fractions were discarded. Then, 2 mL of 50 mmol/L [[…]]/hydrochloric acid (HCl) (pH 7.5) (Tris) was passed through the column 3 times, and 2 mL of distilled water, and 1.5 mL of a 0.2 mol/L aqueous sodium hydroxide solution were passed through the column in this order, and the eluted fractions were discarded. Then, 2 mL of a 0.2 mol/L aqueous sodium hydroxide solution was passed through the column, and the eluted fraction was recovered in a scintillation vial. Then, 8 mL of Ultimagold (Perkin Elmer) was added to the recovered eluted solution, and the radioactivity ([^3H]-histamine) was measured using a liquid scintillation counter. The inhibitory action of the test compound on the histamine release suppressive action of N^α-methylhistamine was evaluated by obtaining the inhibition ratio to the histamine release suppressive action in the presence of 1 μmol/L No-methylhistamine and 1 μmol/L of the test compound. The inhibition ratio of the [^3H]-histamine release suppressive action was calculated using the following Equation (2). […]

Data set [2] concerns the target T1, histamine H3 receptor. The data set can be described thus: Histamine H3 receptor binding assay ([3H]-Nα-methylhistamine binding to rat striatum homogenate). The following applies: 1 μmol/L test compound; [3H]-Nα-methylhistamine 1 nmol/L; striata of Sprague-Dawley male rats, 25° C., 1 hour; read-out: Inhibition ratio of [3H]-Nα-methylhistamine binding. The procedure, abridged:
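Rat striatum membranes (20 μg protein) incubated with [3H]-Nα-methylhistamine 1 nmol/L in 50 mmol/L Tris/HCl pH 7.4, 5 mmol/L EDTA, 1 hour at 25° C; bound ligand by filtration and scintillation counting. Nonspecific binding defined with 10 μmol/L thioperamide; % inhibition reported at 1 μmol/L compound.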

T1 sequence (Q9QYN8 whole entry): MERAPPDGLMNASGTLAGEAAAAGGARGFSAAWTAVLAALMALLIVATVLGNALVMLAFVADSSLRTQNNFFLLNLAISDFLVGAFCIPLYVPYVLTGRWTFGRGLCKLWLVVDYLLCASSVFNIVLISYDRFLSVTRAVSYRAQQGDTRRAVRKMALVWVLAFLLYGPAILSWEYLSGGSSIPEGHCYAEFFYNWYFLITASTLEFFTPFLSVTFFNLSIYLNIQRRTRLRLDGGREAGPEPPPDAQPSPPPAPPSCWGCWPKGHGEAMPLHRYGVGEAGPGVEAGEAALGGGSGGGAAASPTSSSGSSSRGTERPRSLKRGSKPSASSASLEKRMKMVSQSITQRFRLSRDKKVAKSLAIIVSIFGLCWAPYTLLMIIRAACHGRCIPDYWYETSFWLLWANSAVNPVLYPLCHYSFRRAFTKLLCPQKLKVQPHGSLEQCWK

As for `CC1CCCN1CCCN1CCN(CCN2CCCC2C)C1=C(C#N)C#N` (stereo not drawn) [Compound 11, {1-[2-(2-Methylpyrrolidin-1-yl)ethyl]-3-[3-(2-methylpyrrolidin-1-yl)propyl]imidazolidin-2-ylidene}malononitrile], the melting point (usually the temperature, or range, at which the solid turns liquid) was 69 to 71 °C. In addition, at histamine H3 receptor [1], the inhibition at 1 µM is ≥ 70%. For the same molecule, at histamine H3 receptor [2], the inhibition at 1 µM is ≥ 80%.

The molecule `CN(CCCN1CCCCC1)C(=C(C#N)C#N)N1CCC(N2CCCCC2)CC1` [Compound 161, {[N-methyl-N-(3-piperidinopropyl)amino](4-piperidinopiperidino)methylene}malononitrile] displayed a melting point of 104 to 105 °C. Further, the inhibition at 1 µM on histamine H3 receptor [1] is ≥ 70%. Also, on histamine H3 receptor [2], the inhibition at 1 µM is ≥ 80%.

As to `CC1CCCN1CCN1CCN(CCCN2CCCCC2)C1=C(C#N)C#N` (stereo not drawn) [Compound 57, {1-[2-(2-Methylpyrrolidin-1-yl)ethyl]-3-(3-piperidinopropyl)imidazolidin-2-ylidene}malononitrile], the melting point lay within 84 to 86 °C. Besides, the inhibition at 1 µM at histamine H3 receptor [1] was ≥ 70%. Also, the inhibition at 1 µM on histamine H3 receptor [2] was ≥ 80%.

`CN(CCCN1CCOCC1)C(=C(C#N)C#N)N1CCC(N2CCCCC2)CC1` [Compound 166] yielded a melting point of 104 to 106 °C. The inhibition at 1 µM on histamine H3 receptor [1] is ≥ 70%. For the same molecule, the inhibition at 1 µM at histamine H3 receptor [2] was ≥ 80%.

In the case of `CC(C)N1CCC(N2CCN(CCCN3CCC(=O)CC3)C2=C(C#N)C#N)CC1` [Compound 233, {1-(1-Isopropylpiperidin-4-yl)-3-[3-(4-oxopiperidino)propyl]imidazolidin-2-ylidene}malononitrile], the melting point was in the range of 103 to 105 °C. The inhibition at 1 µM at histamine H3 receptor [1] was ≥ 70%. For the same molecule, the inhibition at 1 µM on histamine H3 receptor [2] was ≥ 80%.

`N#CC(C#N)=C(NCCN1CCCCC1)N1CCC(N2CCCCC2)CC1` [Compound 143, [(2-Piperidinoethylamino)(4-piperidinopiperidino)methylene]malononitrile]: the melting point was in the range of 198 to 200 °C. In addition, the inhibition at 1 µM on histamine H3 receptor [1] was ≥ 70%. For the same molecule, at histamine H3 receptor [2], the inhibition at 1 µM was ≥ 80%.

Molecule `N#CC(C#N)=C(NCCCN1CCOCC1)N1CCC(N2CCCCC2)CC1` [Compound 165, [(4-Piperidinopiperidino)(3-morpholinopropylamino)methylene]malononitrile] returned a melting point of 77 to 80 °C. Further, the inhibition at 1 µM at histamine H3 receptor [1] was ≥ 70%. Further, the inhibition at 1 µM on histamine H3 receptor [2] is ≥ 80%.

Turning to `C[C@@H]1CCCN1CCCN1C(=C(C#N)C#N)N(CCCN2CCC[C@H]2C)c2ccccc21` [Compound 205, {1,3-Bis[3-((R)-2-methylpyrrolidin-1-yl)propyl]benzimidazolidin-2-ylidene}malononitrile], the melting point was 96 to 97 °C. For the same molecule, on histamine H3 receptor [1], the inhibition at 1 µM is ≥ 70%. The inhibition at 1 µM on histamine H3 receptor [2] was ≥ 80%.

The molecule `C[C@@H]1CCCN1CCN1CCN(CCN2CCC[C@H]2C)C1=C(C#N)C#N` [Compound 189, {1,3-Bis[2-((R)-2-methylpyrrolidin-1-yl)ethyl]imidazolidin-2-ylidene}malononitrile] displayed a melting point of 139 to 141 °C. Further, the inhibition at 1 µM at histamine H3 receptor [1] was ≥ 70%. The inhibition at 1 µM on histamine H3 receptor [2] is ≥ 80%.

`C[C@H]1CCCN1CCCN1CCN(CCCN2CCC[C@@H]2C)C1=C(C#N)C#N` [Compound 115, {1,3-Bis[3-((S)-2-methylpyrrolidin-1-yl)propyl]imidazolidin-2-ylidene}malononitrile] had a melting point of 79 to 80 °C. Moreover, the inhibition at 1 µM at histamine H3 receptor [1] is ≥ 70%. Further, the inhibition at 1 µM on histamine H3 receptor [2] was ≥ 80%.

`C[C@H]1CCCN1CCN1CCN(CCCN2CCCCC2)C1=C(C#N)C#N` [Compound 58, {1-[2-((S)-2-methylpyrrolidin-1-yl)ethyl]-3-(3-piperidinopropyl)imidazolidin-2-ylidene}malononitrile] registered a melting point of 95 to 96 °C. Besides, the inhibition at 1 µM at histamine H3 receptor [1] is ≥ 70%. Moreover, the inhibition at 1 µM on histamine H3 receptor [2] was ≥ 80%.

The molecule `CC(C)N1CCC(N2CCN(CCCN3C[C@@H](C)O[C@@H](C)C3)C2=C(C#N)C#N)CC1` [Compound 234, {3-[3-(Cis-2,6-dimethylmorpholino)propyl]-1-(1-isopropylpiperidin-4-yl)imidazolidin-2-ylidene}malononitrile] gave a melting point of 117 to 118 °C. Also, the inhibition at 1 µM at histamine H3 receptor [1] is ≥ 70%. Further, the inhibition at 1 µM at histamine H3 receptor [2] is ≥ 80%.

The molecule `N#CC(C#N)=C1N(CCCN2CCOCC2)CCN1C1CCN(C2CC2)CC1` [Compound 235, [1-(1-Cyclopropylpiperidin-4-yl)-3-(3-morpholinopropyl)imidazolidin-2-ylidene]malononitrile] gave a melting point of 104 to 106 °C. Also, the inhibition at 1 µM at histamine H3 receptor [1] is ≥ 70%. On histamine H3 receptor [2], the inhibition at 1 µM was ≥ 80%.

`CC1CCCN1CCCN1CCN(CCCN2CCCC2C)C1=C(C#N)C#N` (stereo not drawn) [Compound 65, {1,3-Bis[3-(2-methylpyrrolidin-1-yl)propyl]imidazolidin-2-ylidene}malononitrile]: the melting point fell in the range of 89 to 93 °C. The inhibition at 1 µM at histamine H3 receptor [1] was ≥ 70%. In addition, the inhibition at 1 µM at histamine H3 receptor [2] was ≥ 80%.

As to `CN(CCCN1CCCCC1)C(=C(C#N)C#N)N1CCC(N2CCCC2)CC1` [Compound 159, {[N-methyl-N-(3-piperidinopropyl)amino][4-(pyrrolidin-1-yl)piperidino]methylene}malononitrile], the melting point fell in the range of 116 to 117 °C. For the same molecule, the inhibition at 1 µM on histamine H3 receptor [1] is ≥ 70%. On histamine H3 receptor [2], the inhibition at 1 µM was ≥ 80%.

Turning to `CC(C)N1CCC(N2CCN(CCCN3CCSCC3)C2=C(C#N)C#N)CC1` [Compound 231, [1-(1-Isopropylpiperidin-4-yl)-3-(3-thiomorpholin-1-ylpropyl)imidazolidin-2-ylidene]malononitrile], the melting point is 124 to 125 °C. Besides, at histamine H3 receptor [1], the inhibition at 1 µM was ≥ 70%. The inhibition at 1 µM at histamine H3 receptor [2] was ≥ 80%.

The values are drawn from patent US20090181948A1, “DIAMINE DERIVATIVE” (KYOWA HAKKO KOGYO CO., LTD., priority 2005, published 2009).
